Assay results from ChEMBL document CHEMBL1275572, “KPC-2-producing Enterobacter cloacae and pseudomonas putida coinfection in a liver transplant recipient” (2009).
Converted amounts (≈) assume the structure as drawn.

Assays:
Enterobacter cloacae [1] = assay: Antimicrobial activity against Enterobacter cloacae expressing beta-lactamase KPC-2 and SHV-12 obtained from criticall ill liver transplant recipient by broth microdilution method; format: functional
Pseudomonas putida [2] = assay: Antimicrobial activity against Pseudomonas putida expressing beta-lactamase KPC-2 and SHV-12 obtained from criticall ill liver transplant recipient by broth microdilution method; format: functional
Enterobacter cloacae [3] = assay: Antimicrobial activity against Enterobacter cloacae expressing beta-lactamase KPC-2 and SHV-12 obtained from criticall ill liver transplant recipient by broth microdilution method in presence of beta-lactamase inhibitor Tazobactam; format: functional
Pseudomonas putida [4] = assay: Antimicrobial activity against Pseudomonas putida expressing beta-lactamase KPC-2 and SHV-12 obtained from criticall ill liver transplant recipient by broth microdilution method in presence of beta-lactamase inhibitor Tazobactam; format: functional
Acinetobacter sp. = assay: Antimicrobial activity against Acinetobacter spp.; format: functional, organism-based

Description for Pseudomonas aeruginosa: Antimicrobial activity against Pseudomonas aeruginosa

Compound	MIC (Enterobacter cloacae [1]) [µg/mL]	MIC (Pseudomonas putida [2]) [µg/mL]	also measured
C[C@@H](O)[C@H]1C(=O)N2C(C(=O)O)=C(S[C@@H]3CN[C@H](C(=O)N(C)C)C3)[C@H](C)[C@H]12 [MEROPENEM]	> 4	> 4	–
C[C@@H](O)[C@H]1C(=O)N2C(C(=O)O)=C(S[C@@H]3CN[C@H](C(=O)Nc4cccc(C(=O)O)c4)C3)[C@H](C)[C@H]12	> 8	> 8	–
C[C@@H](O)[C@H]1C(=O)N2C(C(=O)O)=C(SCCNC=N)C[C@H]12 [IMIPENEM ANHYDROUS]	> 4	> 4	–
C[C@H]1COc2c(N3CCN(C)CC3)c(F)cc3c(=O)c(C(=O)O)cn1c23.C[C@H]1COc2c(N3CCN(C)CC3)c(F)cc3c(=O)c(C(=O)O)cn1c23.O [LEVOFLOXACIN]	2	> 16	–
CC(C)(O/N=C(\C(=O)N[C@@H]1C(=O)N2C(C(=O)[O-])=C(C[n+]3ccccc3)CS[C@H]12)c1csc(N)n1)C(=O)O [CEFTAZIDIME]	> 32	> 32	–
CO/N=C(\C(=O)N[C@@H]1C(=O)N2C(C(=O)O)=C(CSc3nc(=O)c(O)nn3C)CS[C@H]12)c1csc(N)n1 [CEFTRIAXONE]	> 32	> 32	–
NCC[C@H](O)C(=O)N[C@@H]1C[C@H](N)[C@@H](O[C@H]2O[C@H](CN)[C@@H](O)[C@H](O)[C@H]2O)[C@H](O)[C@H]1O[C@H]1O[C@H](CO)[C@@H](O)[C@H](N)[C@H]1O [AMIKACIN]	16 (≈ 27.3 µM)	1 (≈ 1.71 µM)	–
CCN1CCN(C(=O)N[C@@H](C(=O)N[C@@H]2C(=O)N3[C@@H]2SC(C)(C)[C@@H]3C(=O)O)c2ccccc2)C(=O)C1=O [PIPERACILLIN]	–	–	MIC (Enterobacter cloacae [3]): > 128 µg/mL; MIC (Pseudomonas putida [4]): > 128 µg/mL
CO/N=C(\C(=O)N[C@@H]1C(=O)N2C(C(=O)[O-])=C(C[N+]3(C)CCCC3)CS[C@H]12)c1csc(N)n1	–	> 32	–
NC[C@H]1O[C@H](O[C@H]2[C@H](O)[C@@H](O[C@H]3O[C@H](CO)[C@@H](O)[C@H](N)[C@H]3O)[C@H](N)C[C@@H]2N)[C@H](N)C[C@@H]1O [TOBRAMYCIN]	> 8	> 8	–
CO[C@@]1(NC(=O)Cc2cccs2)C(=O)N2C(C(=O)O)=C(COC(N)=O)CS[C@@H]21 [CEFOXITIN]	> 32	> 32	–
COLISTIN	> 16	2	MIC (Acinetobacter sp.): > 16 µg/mL; MIC (Pseudomonas aeruginosa): > 16 µg/mL
GENTAMICIN	> 8	> 8	–
